Measurements taken from patent US20240252677A1, “ONE-COMPONENT DELIVERY SYSTEM FOR NUCLEIC ACIDS” (The Trustees of the University of Pennsylvania, priority 2021, published 2024).

Experiments:
spleen = test: In vivo mRNA delivery, IVIS imaging of organs: spleen; parameters: species or system mice; key to Organs with luminescence: spleen: strong: Strong meant the luminescence intensity in that organ was relatively high, compared to other organs; weak: Weak meant the luminescence intensity in that organ was relatively low, compared to other organs; conditions: for Organs with luminescence: spleen (weak/strong): Table 14, imaging 5 h after injection; for Organs with luminescence: spleen: Table 17, mice, IVIS, 4-6 h after injection, intensity relative to other organs
Method: (§1) The exposure time was 1 min.
(§2) Tissue luminescence signal was measured on the IVIS imaging system using an exposure time of 60 seconds using medium binning (binning=8) to ensure that the signal obtained was within operative detection range. […] Bioluminescence imaging was performed as described above.
(§3) Tissue luminescence signal was measured on the IVIS imaging system using a certain exposure time (60, 30 or 15 seconds) and medium binning (binning=8) to ensure that the signal obtained was within operative detection range.

[1] = pKa measurements of individual IAJD molecules by titration; assay type: physicochemical; conditions: ethanol saturated with NaCl, titrated with 0.1 M aqueous HCl, titration
Outline: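 Compound dissolved at 1.5 mg/mL in NaCl-saturated ethanol and titrated with 0.1 M HCl in 7.5 μL steps, pH read by electrode after each addition. pKa taken from the half-equivalence point.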

[2] = Dimensions (size, PDI) of DNPs co-assembled from IAJDs and Luc-mRNA by DLS; assay type: physicochemical
Outline: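 IAJDs (80 mg/mL ethanol stock) rapidly injected into Luc-mRNA (4.0 mg/mL stock) diluted in 10 mM acetate buffer pH 4.0, then vortexed 5 s. Size and polydispersity of resulting DNPs measured by DLS (633 nm laser, 175° detection) at 23 °C.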

liver = test: In vivo mRNA delivery, IVIS imaging of organs: liver; parameters: species or system mice; key to Organs with luminescence: liver: strong: Strong meant the luminescence intensity in that organ was relatively high, compared to other organs; weak: Weak meant the luminescence intensity in that organ was relatively low, compared to other organs; conditions: for Organs with luminescence: liver (weak/strong): Table 14, imaging 5 h after injection; for Organs with luminescence: liver: Table 17, mice, IVIS, 4-6 h after injection, intensity relative to other organs
Method: as §1, §2, §3

[3] = Stability of DNPs by DLS after storage at 5° C.; assay type: physicochemical; parameters: key to Original size distribution type (DLS curve) / Size distribution type (DLS curve): U: DLS curve showed unimodal size distribution; B: DLS curve showed bimodal size distribution; M: DLS curve showed multimodal size distribution; conditions: for pH Sample: DNPs: IAJD 4.0 mg/mL + Luc-mRNA 0.1 mg/mL, injection in acetate buffer pH 4.00; for PDI / Size (d, nm) / Original size distribution type (DLS curve): IAJD 4.0 mg/mL + Luc-mRNA 0.1 mg/mL; for PDI / Size (d, nm): acetate buffer; for Original size distribution type (DLS curve): before storage, acetate buffer pH 4.00
Outline: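 DNPs in acetate buffer sized by DLS after storage at 5 °C. Stability ranked Excellent, Good or Not stable according to retention, shrinkage or growth of original size and narrowing or broadening of size distribution.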

[4] = Table 15, individual IAJD molecule
[5] = Table 12, DNPs, IAJD 4 mg/mL + Luc-mRNA 0.10 mg/mL, acetate buffer 10 mM pH 4.0
[6] = Table 13, DNPs, IAJD 4 mg/mL + Luc-mRNA 0.10 mg/mL, acetate buffer pH 4.0
[7] = Table 14, DNPs, IAJD 4 mg/mL + Luc-mRNA 0.10 mg/mL, acetate buffer pH 4.0
[8] = Table 16, DNPs from IAJD 4 mg/mL and Luc-mRNA 0.10 mg/mL by injection in acetate buffer (10 mM, pH 4.0)
[9] = Table 17, DNPs used in vivo, IAJD 4 mg/mL, Luc-mRNA 0.10 mg/mL, acetate pH 4.0

| Structure (SMILES) | Organs with luminescence: spleen (spleen) | pH Sample [3] | Original size distribution type (DLS curve) [3] | pKa ([1]; individual IAJD molecules) | PDI [2, 8] | Size (d, nm) [2, 8] [nm] | PDI [2, 9] | Size (d, nm) [2, 9] [nm] | Organs with luminescence: liver (liver) | Size distribution type (DLS curve) ([3]; after 62 days at 5° C.) | PDI ([3]; after 62 days at 5° C.) | Size (d, nm) ([3]; after 62 days at 5° C.) [nm] | further results |
| --- | --- | --- | --- | --- | --- | --- | --- | --- | --- | --- | --- | --- | --- |
| CCCCC(CC)COc1cc(COC(=O)CCCN2CCN(C)CC2)cc(OCC(CC)CCCC)c1OCC(CC)CCCC (stereo not drawn) [IAJD 96, 3,4,5-Tris((2-ethylhexyl)oxy)benzyl 4-(4-methylpiperazin-1-yl)butanoate] | – | – | – | – | – | – | – | – | – | – | – | – | Organs with luminescence: spleen (weak/strong) (spleen): spleen (strong); pKa [1, 4]: 6.32; PDI [2, 5]: 0.402; Size (d, nm) [2, 5]: 139 nm; PDI [2, 6]: 0.402; Size (d, nm) [2, 6]: 139 nm; PDI [2, 7]: 0.402; Size (d, nm) [2, 7]: 139 nm; Organs with luminescence: liver (weak/strong) (liver): liver (weak), |
| CCCCC(CC)COc1cc(COC(=O)CCCN2CCN(CCO)CC2)cc(OCC(CC)CCCC)c1OCC(CC)CCCC (stereo not drawn) [IAJD 97, 3,4,5-Tris((2-ethylhexyl)oxy)benzyl 4-(4-(2-hydroxyethyl)piperazin-1-yl)butanoate] | – | – | – | – | – | – | – | – | – | – | – | – | Organs with luminescence: spleen (weak/strong) (spleen): spleen (strong); pKa [1, 4]: 6.46; PDI [2, 5]: 0.482; Size (d, nm) [2, 5]: 204 nm; PDI [2, 6]: 0.482; Size (d, nm) [2, 6]: 204 nm; PDI [2, 7]: 0.482; Size (d, nm) [2, 7]: 204 nm; Organs with luminescence: liver (weak/strong) (liver): liver (weak), |
| CCCCCCCCCCCOc1cc(COC(=O)CCCN2CCN(C)CC2)cc(OCCCCCCCCCC)c1 [IAJD 114, 3-(Decyloxy)-5-(undecyloxy)benzyl 4-(4-methylpiperazin-1-yl)butanoate] | spleen (strong) | 4.46 | (U) | 6.43 | 0.351 | 105 | 0.351 | 105 | liver (weak), | – | – | – | Size distribution type (DLS curve) ([3]; after 75 days at 5° C.): (B); PDI ([3]; after 75 days at 5° C.): 0.369; Size (d, nm) ([3]; after 75 days at 5° C.): 107 nm |
| CCCCCCCCCCCCCOc1cc(COC(=O)CCCN2CCN(C)CC2)cc(OCCCCCCCCCCC)c1 [IAJD 116, 3-(Tridecyloxy)-5-(undecyloxy)benzyl 4-(4-methylpiperazin-1-yl)butanoate] | spleen (strong) | 4.47 | (U) | 6.51 | 0.264 | 150 | 0.264 | 150 | liver (weak), | (U) | 0.272 | 168 | – |
| CCCCCCCCCCCCCOc1cc(COC(=O)CCCN2CCN(CCO)CC2)cc(OCCCCCCCCCCC)c1 [IAJD 117, 3-(Tridecyloxy)-5-(undecyloxy)benzyl 4-(4-(2-hydroxyethyl)piperazin-1-yl)butanoate] | spleen (strong) | 4.40 | (B) | 6.49 | 0.367 | 255 | 0.367 | 255 | liver (weak), | – | – | – | Size distribution type (DLS curve) ([3]; after 70 days at 5° C.): (B); PDI ([3]; after 70 days at 5° C.): 0.312; Size (d, nm) ([3]; after 70 days at 5° C.): 323 nm |
| CCCCCCCCCCCCCCCOc1cc(COC(=O)CCCN2CCN(C)CC2)cc(OCCCCCCCCCCC)c1 [IAJD 118, 3-(Pentadecyloxy)-5-(undecyloxy)benzyl 4-(4-methylpiperazin-1-yl)butanoate] | spleen (strong) | 4.43 | (B) | 6.33 | 0.278 | 104 | 0.278 | 104 | liver (weak), | – | – | – | Size distribution type (DLS curve) ([3]; after 75 days at 5° C.): (B); PDI ([3]; after 75 days at 5° C.): 0.262; Size (d, nm) ([3]; after 75 days at 5° C.): 105 nm |
| CCCCCCCCCCCCCCCOc1cc(COC(=O)CCCN2CCN(CCO)CC2)cc(OCCCCCCCCCCC)c1 [IAJD 119, 3-(Pentadecyloxy)-5-(undecyloxy)benzyl 4-(4-(2-hydroxyethyl)piperazin-1-yl)butanoate] | spleen (strong) | 4.36 | (M) | 6.44 | 0.459 | 163 | 0.459 | 163 | liver (weak), | (B) | 0.489 | 254 | – |
| CCCCCCCCCCCCCCOc1cc(COC(=O)CCCN2CCN(CCO)CC2)cc(OCCCCCCCCCCC)c1 [IAJD 125, 3-(Tetradecyloxy)-5-(undecyloxy)benzyl 4-(4-(2-hydroxyethyl)piperazin-1-yl)butanoate] | spleen (strong) | 4.44 | (U) | 6.64 | 0.300 | 255 | 0.300 | 255 | liver (weak), | (U) | 0.283 | 276 | – |
| CCCCCCCCCCCCCCCCCOc1cc(COC(=O)CCCN2CCN(C)CC2)cc(OCCCCCCCCCCC)c1 [IAJD 126, 3-(Heptadecyloxy)-5-(undecyloxy)benzyl 4-(4-methylpiperazin-1-yl)butanoate] | spleen (strong) | 4.48 | (U) | 6.52 | 0.247 | 158 | 0.247 | 158 | liver (weak), | – | – | – | Size distribution type (DLS curve) ([3]; after 70 days at 5° C.): (U); PDI ([3]; after 70 days at 5° C.): 0.239; Size (d, nm) ([3]; after 70 days at 5° C.): 154 nm |
| CCCCCCCCCCCCCCCCCOc1cc(COC(=O)CCCN2CCN(CCO)CC2)cc(OCCCCCCCCCCC)c1 [IAJD 127, 3-(Heptadecyloxy)-5-(undecyloxy)benzyl 4-(4-(2-hydroxyethyl)piperazin-1-yl)butanoate] | spleen (strong) | 4.46 | (U) | 6.52 | 0.270 | 276 | 0.270 | 276 | liver (weak), | (B) | 0.248 | 263 | – |
